Results: PMC4145624, “Simultaneous purification of nitrile hydratase and amidase of Alcaligenes sp. MTCC 10674” (3 Biotech, 2013)

Key:
Amidase = system: T1, Amidase; assay: ammonia release assay; format: biochemical, Alcaligenes sp. MTCC 10674; settings: sodium phosphate buffer 0.075 M, pH 8.0, 45 °C (standard assay); substrate named, not in the Km sentence
T1 construct: native, purified from Alcaligenes sp; MTCC 10674 cells (DEAE-Sepharose, Sephacryl S-100); dimer of 52 and 49 kDa, 114 kDa by native PAGE

[1] = system: T2, Nitrile hydratase (Nhase); assay: acrylamide formation at […] nm; format: biochemical, Alcaligenes sp. MTCC 10674; settings: sodium phosphate buffer 0.125 M, pH 8.0, 15 °C (standard assay)
T2 construct: gene nthA; native, purified from Alcaligenes sp; MTCC 10674 cells (DEAE-Sepharose); heterodimer of 24 and 21 kDa, 47 kDa by native PAGE

SMILES | Km (Amidase) | Km [1]
CCC(N)=O [propionamide] | 45.5 mM | –
C=CC#N [acrylonitrile] | – | 40 mM
